Laboratory results: patent US20250177363A1, “SUBSTITUTED IMIDAZOPYRIDINYL COMPOUNDS USEFUL AS INHIBITORS OF TLR9” (Bristol-Myers Squibb Company, priority 2022, published 2025)
pIC50: −log10 of the molar value.

Tests used:
Type in all cases: cell-based
human TLR9 = molecular target: T1, human TLR9 (Homo sapiens, UniProt Q9NR96); assay: TLR9 inhibition reporter assay (HEK-Blue, SEAP); details: HEK-Blue cells overexpressing human TLR9, ligand ODN2006 200 nM, 22 hour incubation
T1 construct: host or cells: HEK-Blue cells
T1 sequence (Q9NR96 26-1032): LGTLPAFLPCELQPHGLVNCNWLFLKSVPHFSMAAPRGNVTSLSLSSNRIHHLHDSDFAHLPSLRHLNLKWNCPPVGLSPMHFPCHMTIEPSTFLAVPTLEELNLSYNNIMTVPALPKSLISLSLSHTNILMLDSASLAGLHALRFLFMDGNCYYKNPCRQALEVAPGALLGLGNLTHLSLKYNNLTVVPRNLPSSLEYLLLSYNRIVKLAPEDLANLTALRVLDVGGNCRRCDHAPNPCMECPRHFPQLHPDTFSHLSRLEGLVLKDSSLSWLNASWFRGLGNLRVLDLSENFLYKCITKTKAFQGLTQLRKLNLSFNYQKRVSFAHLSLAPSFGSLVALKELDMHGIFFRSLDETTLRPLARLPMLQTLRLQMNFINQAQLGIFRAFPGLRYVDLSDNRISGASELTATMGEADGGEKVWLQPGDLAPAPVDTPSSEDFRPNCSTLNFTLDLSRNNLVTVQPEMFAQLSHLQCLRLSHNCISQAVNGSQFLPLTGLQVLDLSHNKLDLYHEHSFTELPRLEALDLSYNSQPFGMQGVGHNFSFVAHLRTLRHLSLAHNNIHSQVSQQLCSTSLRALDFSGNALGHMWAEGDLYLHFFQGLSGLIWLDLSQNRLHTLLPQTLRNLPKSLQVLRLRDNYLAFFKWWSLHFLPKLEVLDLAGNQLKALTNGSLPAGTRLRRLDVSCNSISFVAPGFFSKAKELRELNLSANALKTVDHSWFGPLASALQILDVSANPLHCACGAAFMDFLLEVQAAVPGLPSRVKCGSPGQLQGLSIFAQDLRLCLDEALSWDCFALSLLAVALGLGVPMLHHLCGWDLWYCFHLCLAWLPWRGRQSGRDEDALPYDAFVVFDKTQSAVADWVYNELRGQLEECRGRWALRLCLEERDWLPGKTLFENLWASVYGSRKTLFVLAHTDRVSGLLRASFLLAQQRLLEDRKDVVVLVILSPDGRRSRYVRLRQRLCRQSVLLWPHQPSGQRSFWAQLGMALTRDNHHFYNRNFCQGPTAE
Procedure: (§1) TLR7/8/9 Inhibition Reporter Assays
(§2) HEK-Blue™-cells (Invivogen) overexpressing human TLR7. TLR8 or TLR9 receptors were used for screening inhibitors of these receptors using an inducible SEAP (secreted embryonic alkaline phosphatase) reporter gene under the control of the IFN-β minimal promoter fused to five NF-κB and AP-1-binding sites. Cells are seeded into Greiner 384 well plates (15000 cells per well) that are pre dispensed (by ECHO) with testing compounds in DMSO to yield a final dose response concentration range of 0.85 nM-50 μM. After a 60 minute compound pre-treatment in 37 degree incubator, the cells are then stimulated with a TLR7 ligand (gardiquimod at a final concentration of 2.5 μM), TLR8 ligand (R848 at a final concentration of 14.25 μM) or TLR9 ligand (ODN2006 at a final concentration of 200 nM) to activate NF-κB and AP-1 which induce the production of SEAP. After a 22 hour incubation at 37° C., 5% CO2, SEAP levels are determined with the addition of HEK-Blue™ Detection reagent (Invivogen), a cell culture medium that allows for detection of SEAP, according to manufacturer's specifications. The percent inhibition is determined as the % reduction in the HEK-Blue signal present in […].

human TLR7 = molecular target: T2, human TLR7 (Homo sapiens, UniProt Q9NYK1); assay: TLR7 inhibition reporter assay (HEK-Blue, SEAP); details: HEK-Blue cells overexpressing human TLR7, ligand gardiquimod 2.5 μM, 22 hour incubation
T2 construct: host or cells: HEK-Blue cells
T2 sequence (Q9NYK1 27-1049): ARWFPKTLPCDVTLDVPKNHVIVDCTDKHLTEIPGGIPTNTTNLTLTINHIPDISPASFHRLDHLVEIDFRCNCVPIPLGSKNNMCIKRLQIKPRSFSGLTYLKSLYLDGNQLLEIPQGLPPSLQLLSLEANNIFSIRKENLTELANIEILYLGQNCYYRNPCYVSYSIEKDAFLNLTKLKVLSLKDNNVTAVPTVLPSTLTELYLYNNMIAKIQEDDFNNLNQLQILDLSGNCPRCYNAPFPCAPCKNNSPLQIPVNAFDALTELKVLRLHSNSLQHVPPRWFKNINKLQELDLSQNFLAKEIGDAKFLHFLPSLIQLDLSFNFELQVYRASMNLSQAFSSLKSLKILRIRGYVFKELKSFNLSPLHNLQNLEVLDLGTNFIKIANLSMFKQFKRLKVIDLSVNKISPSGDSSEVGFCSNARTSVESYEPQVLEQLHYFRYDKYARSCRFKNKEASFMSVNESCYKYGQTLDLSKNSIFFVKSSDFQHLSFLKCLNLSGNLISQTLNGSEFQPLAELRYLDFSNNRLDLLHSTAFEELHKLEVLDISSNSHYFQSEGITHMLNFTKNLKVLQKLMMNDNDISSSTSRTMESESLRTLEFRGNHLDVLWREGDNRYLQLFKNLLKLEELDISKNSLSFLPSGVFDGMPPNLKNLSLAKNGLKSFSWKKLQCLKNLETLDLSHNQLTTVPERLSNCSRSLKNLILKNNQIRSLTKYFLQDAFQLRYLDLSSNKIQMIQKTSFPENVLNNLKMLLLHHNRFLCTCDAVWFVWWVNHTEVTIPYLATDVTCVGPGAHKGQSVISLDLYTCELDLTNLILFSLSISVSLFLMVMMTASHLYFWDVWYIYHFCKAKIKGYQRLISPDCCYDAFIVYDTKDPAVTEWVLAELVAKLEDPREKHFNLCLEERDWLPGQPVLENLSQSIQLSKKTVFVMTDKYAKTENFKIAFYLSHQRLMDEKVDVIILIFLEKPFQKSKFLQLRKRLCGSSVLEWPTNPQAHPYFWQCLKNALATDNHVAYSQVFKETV
Procedure: as §1, §2

human TLR8 = molecular target: T3, human TLR8 (Homo sapiens, UniProt Q9NR97); assay: TLR8 inhibition reporter assay (HEK-Blue, SEAP); details: HEK-Blue cells overexpressing human TLR8, ligand R848 14.25 μM, 22 hour incubation
T3 construct: host or cells: HEK-Blue cells
T3 sequence (Q9NR97 27-1041): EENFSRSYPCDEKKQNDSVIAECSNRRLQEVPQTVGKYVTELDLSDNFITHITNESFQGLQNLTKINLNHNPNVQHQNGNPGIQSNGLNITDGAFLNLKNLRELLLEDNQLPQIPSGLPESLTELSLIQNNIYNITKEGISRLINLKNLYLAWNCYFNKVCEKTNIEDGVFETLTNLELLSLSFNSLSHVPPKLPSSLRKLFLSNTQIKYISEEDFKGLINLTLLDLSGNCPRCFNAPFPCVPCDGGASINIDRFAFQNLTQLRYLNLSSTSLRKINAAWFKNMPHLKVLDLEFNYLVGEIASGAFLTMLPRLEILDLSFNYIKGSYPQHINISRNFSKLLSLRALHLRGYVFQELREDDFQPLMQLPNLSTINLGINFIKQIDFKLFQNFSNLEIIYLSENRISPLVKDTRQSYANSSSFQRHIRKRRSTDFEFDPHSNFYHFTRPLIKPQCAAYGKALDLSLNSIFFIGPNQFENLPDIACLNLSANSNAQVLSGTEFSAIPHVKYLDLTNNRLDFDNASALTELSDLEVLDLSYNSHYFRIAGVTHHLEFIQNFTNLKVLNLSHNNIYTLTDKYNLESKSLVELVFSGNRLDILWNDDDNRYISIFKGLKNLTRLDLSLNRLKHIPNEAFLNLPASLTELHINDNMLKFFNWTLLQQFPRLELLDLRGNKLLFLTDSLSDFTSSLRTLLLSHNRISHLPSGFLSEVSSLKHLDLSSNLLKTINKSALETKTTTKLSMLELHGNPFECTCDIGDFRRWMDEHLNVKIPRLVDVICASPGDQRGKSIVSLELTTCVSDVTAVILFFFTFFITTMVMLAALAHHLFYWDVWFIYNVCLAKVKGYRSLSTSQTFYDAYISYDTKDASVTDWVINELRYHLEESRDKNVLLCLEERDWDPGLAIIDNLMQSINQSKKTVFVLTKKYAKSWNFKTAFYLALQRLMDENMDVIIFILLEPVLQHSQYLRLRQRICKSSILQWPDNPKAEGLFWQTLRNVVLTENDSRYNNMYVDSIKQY
Procedure: as §1, §2

| SMILES | pIC50 (human TLR9) | pIC50 (human TLR7) | pIC50 (human TLR8) |
| --- | --- | --- | --- |
| CC(C)N1CCC(N2CCC(c3cnc4nc(-c5ccc(S(C)(=O)=O)cc5)n(C)c4c3)CC2)CC1 [Example 14, 6-(1′-isopropyl-[1,4′-bipiperidin]-4-yl)-1-methyl-2-(4-(methylsulfonyl)phenyl)-1H-imidazo[4,5-b]pyridine] | 5.51 | < 4.30 | < 4.30 |
| CC(C)N1CC2(CCN(c3ccc(-c4ccc5nc(-c6ccc(S(C)(=O)=O)cc6)n(C)c5n4)cc3)CC2)C1 [Example 61, 5-(4-(2-isopropyl-2,7-diazaspiro[3.5]nonan-7-yl)phenyl)-3-methyl-2-(4-(methylsulfonyl)phenyl)-3H-imidazo[4,5-b]pyridine] | 6.25 | 4.80 | 4.74 |
| Cc1cc(C2CCN(C3CCN(CC(C)(C)O)CC3)CC2)nc2c1nc(-c1ccc(S(C)(=O)=O)cc1)n2C [Example 22, 1-(4-(3,7-dimethyl-2-(4-(methylsulfonyl)phenyl)-3H-imidazo[4,5-b]pyridin-5-yl)-[1,4′-bipiperidin]-1′-yl)-2-methylpropan-2-ol] | 7.59 | 5.89 | < 4.60 |
| COc1ccc(-c2nc3c(C)cc(C4CCN([C@H]5C[C@@H]6CN(C7CCC7)C[C@@H]6C5)CC4)nc3n2C)cc1OC [Example 39, 5-(1-(2-cyclobutyloctahydrocyclopenta[c]pyrrol-5-yl)piperidin-4-yl)-2-(3,4-dimethoxyphenyl)-3,7-dimethyl-3H-imidazo[4,5-b]pyridine] | 6.89 | 6.51 | 4.62 |
| COCCN1C[C@H]2C[C@H](N3CCC(c4cc(C)c5nc(-c6cc(OC)c7ncnn7c6)n(C)c5n4)CC3)C[C@H]2C1 [Example 46, 2-(8-methoxy-[1,2,4]triazolo[1,5-a]pyridin-6-yl)-5-(1-((3aR,5s,6aS)-2-(2-methoxyethyl)octahydrocyclopenta[c]pyrrol-5-yl)piperidin-4-yl)-3,7-dimethyl-3H-imidazo[4,5-b]pyridine] | 7.57 | 6.44 | < 4.30 |
| Cc1cc(C2CCN(C3CC4CCC(C3)N4C3CCC3)CC2)nc2c1nc(-c1ccc(S(C)(=O)=O)cc1)n2C (stereo not drawn) [Example 32, 5-(1-(8-cyclobutyl-8-azabicyclo[3.2.1]octan-3-yl)piperidin-4-yl)-3,7-dimethyl-2-(4-(methylsulfonyl)phenyl)-3H-imidazo[4,5-b]pyridine] | 7.38 | 5.80 | < 4.30 |
| CC(C)CN1CC2(CCN(c3ccc(-c4ccc5nc(-c6ccc(S(C)(=O)=O)cc6)n(C)c5n4)cc3)CC2)C1 [Example 62, 5-(4-(2-isobutyl-2,7-diazaspiro[3.5]nonan-7-yl)phenyl)-3-methyl-2-(4-(methylsulfonyl)phenyl)-3H-imidazo[4,5-b]pyridine] | 6.23 | 4.82 | 5.21 |

More lines, now with the values ahead:

| pIC50 (human TLR9) | pIC50 (human TLR7) | pIC50 (human TLR8) | SMILES |
| --- | --- | --- | --- |
| 6.54 | 4.82 | < 4.30 | Cc1cc(-c2ccc(CN3CCC(N4CCOCC4)CC3)cc2)nc2c1nc(-c1ccc(S(C)(=O)=O)cc1)n2C1CC1 [Example 47, 4-(1-(4-(3-cyclopropyl-7-methyl-2-(4-(methylsulfonyl)phenyl)-3H-imidazo[4,5-b]pyridin-5-yl)benzyl)piperidin-4-yl)morpholine] |
| 5.77 | 4.89 | < 4.30 | Cc1cc(-c2ccc(C3CCN(C)CC3)cc2)nc2c1nc(-c1ccc(S(C)(=O)=O)cc1)n2C1CC1 [Example 9, 3-cyclopropyl-7-methyl-5-(4-(1-methylpiperidin-4-yl)phenyl)-2-(4-(methylsulfonyl)phenyl)-3H-imidazo[4,5-b]pyridine] |
| 7.00 | 5.14 | 4.51 | Cc1cc(-c2ccc(CN3CCC(N4CCCC4)CC3)cc2)nc2c1nc(-c1ccc(S(C)(=O)=O)cc1)n2C1CC1 [Example 2, 3-cyclopropyl-7-methyl-2-(4-(methylsulfonyl)phenyl)-5-(4-((4-(pyrrolidin-1-yl)piperidin-1-yl)methyl)phenyl)-3H-imidazo[4,5-b]pyridine] |
| 6.89 | 5.09 | 4.57 | Cc1cc(-c2ccc(CN3CC4(C3)CN(C3CCC3)C4)cc2)nc2c1nc(-c1ccc(S(C)(=O)=O)cc1)n2C1CC1 [Example 1, 5-(4-((6-cyclobutyl-2,6-diazaspiro[3.3]heptan-2-yl)methyl)phenyl)-3-cyclopropyl-7-methyl-2-(4-(methylsulfonyl)phenyl)-3H-imidazo[4,5-b]pyridine] |
